Each structure is given as a SMILES string.

For this assay, the target named is Metabotropic glutamate receptor 4 (Homo sapiens, UniProt Q14833). Put plainly: Receptor Activity Assay: The disclosed compounds and compositions can be evaluated for their ability to act as a potentiator of metabotropic glutamate receptor activity, in particular mGluR4 activity, by any suitable known methodology known in the art. For example, Chinese Hamster Ovary (CHO) cells transfected with human mGluR4 or HEK cells co-transfected with rat mGuR4 and the G-protein regulated Inwardly Rectifying Potassium channel (GIRK) were plated in clear bottom assay plates for assay in a Hamamatsu FDSS Fluorometric Plate Reader. The cells were loaded with either a Ca2+-sensitive fluorescent dye or the thallium responsive dye and the plates were washed and placed into a suitable kinetic plate reader. For human mGuR4 assays, a fluorescence baseline was established for 3-5 seconds, the disclosed compounds were then added to the cells, and the response in cells was measured. Approximately two and a half minutes later, a concentration of mGuR4 orthosteric agonist (e.g. glutamate or L-AP4) eliciting approximately 20% (EC20) of the maximal agonist response was added to the cells, and the response was measured. Two minutes later, a concentration of mGluR4 agonist (e.g. glutamate or L-AP4) eliciting 80% (EC80) of the maximal agonist response was added to the cells, and the response was measured. For rat mGuR4/GIRK experiments, a baseline was established for approximately five seconds, disclosed compounds were added, and either an EC20 or EC80 concentration of agonist was added approximately two and one half minutes later.
Sequence of Metabotropic glutamate receptor 4 (Q14833 whole entry): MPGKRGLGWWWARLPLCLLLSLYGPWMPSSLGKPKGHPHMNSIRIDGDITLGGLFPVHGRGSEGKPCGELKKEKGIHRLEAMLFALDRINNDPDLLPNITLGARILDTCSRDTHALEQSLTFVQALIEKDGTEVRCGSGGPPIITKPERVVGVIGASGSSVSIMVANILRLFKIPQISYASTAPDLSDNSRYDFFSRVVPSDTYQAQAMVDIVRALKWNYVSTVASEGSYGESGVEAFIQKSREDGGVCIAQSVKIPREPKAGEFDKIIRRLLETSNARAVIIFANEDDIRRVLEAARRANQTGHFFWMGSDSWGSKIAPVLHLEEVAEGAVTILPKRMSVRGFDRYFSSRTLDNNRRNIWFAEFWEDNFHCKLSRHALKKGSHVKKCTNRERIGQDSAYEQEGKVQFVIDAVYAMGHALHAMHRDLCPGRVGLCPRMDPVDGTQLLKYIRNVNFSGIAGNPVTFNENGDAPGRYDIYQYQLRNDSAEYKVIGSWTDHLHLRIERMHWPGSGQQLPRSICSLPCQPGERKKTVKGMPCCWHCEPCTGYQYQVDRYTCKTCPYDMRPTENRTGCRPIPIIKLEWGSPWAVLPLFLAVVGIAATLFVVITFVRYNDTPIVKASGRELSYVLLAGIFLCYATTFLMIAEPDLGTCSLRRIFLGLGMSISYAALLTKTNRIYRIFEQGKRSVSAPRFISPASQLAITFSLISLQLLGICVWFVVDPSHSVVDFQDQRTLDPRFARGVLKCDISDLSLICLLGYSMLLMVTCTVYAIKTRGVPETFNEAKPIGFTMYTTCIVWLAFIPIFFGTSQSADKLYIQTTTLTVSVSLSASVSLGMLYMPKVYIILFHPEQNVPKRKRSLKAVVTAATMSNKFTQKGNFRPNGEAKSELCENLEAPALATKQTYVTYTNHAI
What is called EC50 is the midpoint of the concentration-response curve. Turning to `c1cnc2[nH]nc(Nc3ccc4c(OCC5CCOCC5)nccc4c3)c2c1`, the EC50 was 45.9 nM.

As for `CCOCCOc1nccc2cc(Nc3n[nH]c4nccnc34)ccc12`, the concentration for a half-maximal effect (EC50) was determined as 21.5 nM.

Turning to `c1cnc2[nH]nc(Nc3ccc4c(OCC5CCCCO5)nccc4c3)c2c1` (stereo not drawn), the concentration for a half-maximal effect (EC50) came out at 75.2 nM. As for `c1cnc2[nH]nc(Nc3ccc4c(OCC5COCCO5)nccc4c3)c2c1` (stereo not drawn), the figure is 121 nM; as for `CO[C@H](C)COc1nccc2cc(Nc3n[nH]c4ncccc34)ccc12`, 77.1 nM.

`COCCOc1nccc2cc(Nc3n[nH]c4ncc(F)cc34)ccc12`: the half-maximal effective concentration (EC50) came to 82.3 nM. With `c1cnc2c(Nc3ccc4c(OC5CCOCC5)nccc4c3)n[nH]c2c1` the figure was 12.6 nM. As for `c1cc2cc(Nc3n[nH]c4nccnc34)ccc2c(OCC2CCOCC2)n1`, the figure is 16.1 nM. As for `c1cnc2c(Nc3ccc4c(O[C@H]5CCOC5)nccc4c3)n[nH]c2c1`, the figure is 37.6 nM; as for `c1cnc2c(Nc3ccc4c(O[C@@H]5CCCOC5)nccc4c3)n[nH]c2c1`, 31.9 nM; as for `C[C@@H]1C[C@H](Oc2nccc3cc(Nc4n[nH]c5ncccc45)ccc23)CO1`, 152 nM. Consider `COCCOc1nccc2cc(Nc3n[nH]c4cccnc34)ccc12`, for which the EC50 turned out to be 19.9 nM. As for `c1cnc2c(Nc3ccc4c(OCC5CCCOC5)nccc4c3)n[nH]c2c1` (stereo not drawn), the figure is 15.7 nM; as for `c1cc2cc(Nc3n[nH]c4nccnc34)ccc2c(O[C@H]2CCOC2)n1`, 22.1 nM. Regarding `c1cc2cc(Nc3n[nH]c4nccnc34)ccc2c(O[C@@H]2CCOC2)n1`, the EC50 came to 43.6 nM. With `c1cc2cc(Nc3n[nH]c4nccnc34)ccc2c(OCC2COCCO2)n1` (stereo not drawn) the figure was 28.5 nM; with `c1cnc2c(Nc3ccc4c(OCCN5CCOCC5)nccc4c3)n[nH]c2c1`, 41.2 nM. As for `C[C@H]1OCC[C@H]1Oc1nccc2cc(Nc3n[nH]c4ncccc34)ccc12`, the figure is 154 nM. As for `c1cnc2[nH]nc(Nc3ccc4c(OCC5CCOC5)nccc4c3)c2c1` (stereo not drawn), the figure is 54.3 nM. Consider `c1cnc2c(Nc3ccc4c(OCC5CCOC5)nccc4c3)n[nH]c2c1` (stereo not drawn), for which the concentration giving a half-maximal response (EC50) was 12 nM. With `Fc1cnc2[nH]nc(Nc3ccc4c(OC5CCOCC5)nccc4c3)c2c1` the figure was 118 nM; with `c1cnc2c(Nc3ccc4c(O[C@H]5CCCOC5)nccc4c3)n[nH]c2c1`, 27.3 nM; with `CCOCCOc1nccc2cc(Nc3n[nH]c4ncccc34)ccc12`, 48.4 nM. For `c1cnc2c(Nc3ccc4c(O[C@@H]5CCOC5)nccc4c3)n[nH]c2c1`, the concentration for a half-maximal effect (EC50) worked out at 36.1 nM. With `C[C@H]1C[C@H](Oc2nccc3cc(Nc4n[nH]c5ncccc45)ccc23)CO1` the figure was 70.7 nM.

Turning to `COCCOc1nccc2cc(Nc3n[nH]c4ncccc34)ccc12`, the half-maximal effective concentration (EC50) was found to be 51.5 nM. As for `c1cnc2c(Nc3ccc4c(OCC5CCOCC5)nccc4c3)n[nH]c2c1`, the figure is 11.6 nM; as for `Fc1cnc2c(Nc3ccc4c(OCC5COCCO5)nccc4c3)n[nH]c2c1` (stereo not drawn), 35.9 nM. As for `c1cnc2[nH]nc(Nc3ccc4c(OCCN5CCOCC5)nccc4c3)c2c1`, the figure is 148 nM; as for `COCCOc1nccc2cc(Nc3n[nH]c4cc(F)cnc34)ccc12`, 69 nM; as for `CO[C@H](C)COc1nccc2cc(Nc3n[nH]c4nccnc34)ccc12`, 17.5 nM. As for `c1cc2cc(Nc3n[nH]c4nccnc34)ccc2c(OCC2CCOC2)n1` (stereo not drawn), the figure is 10.4 nM; as for `C[C@@H]1C[C@H](Oc2nccc3cc(Nc4n[nH]c5cccnc45)ccc23)CO1`, 48.3 nM; as for `COCCOc1nccc2cc(Nc3n[nH]c4ccccc34)ccc12`, 76.9 nM. As for `CO[C@H](C)COc1nccc2cc(Nc3n[nH]c4cccnc34)ccc12`, the EC50 was determined as 14.5 nM.

Regarding `CCOCCOc1nccc2cc(Nc3n[nH]c4cccnc34)ccc12`, the concentration giving a half-maximal response (EC50) was 22.3 nM. As for `c1cnc2[nH]nc(Nc3ccc4c(O[C@@H]5CCOC5)nccc4c3)c2c1`, the figure is 64 nM; as for `C[C@H]1C[C@H](Oc2nccc3cc(Nc4n[nH]c5cccnc45)ccc23)CO1`, 26.9 nM. Consider `c1cnc2[nH]nc(Nc3ccc4c(O[C@H]5CCOC5)nccc4c3)c2c1`, for which the EC50 came to 44.2 nM. Consider `c1cnc2c(Nc3ccc4c(OCC5COCCO5)nccc4c3)n[nH]c2c1` (stereo not drawn), for which the EC50 came out at 12.6 nM.

Take `COCCOc1nccc2cc(Nc3n[nH]c4nccnc34)ccc12`: the EC50 stood at 35.2 nM. As for `C[C@H]1OCC[C@H]1Oc1nccc2cc(Nc3n[nH]c4cccnc34)ccc12`, the figure is 55.9 nM; as for `Fc1cnc2c(Nc3ccc4c(O[C@H]5CCOC5)nccc4c3)n[nH]c2c1`, 82.3 nM.

These data come from ChEMBL document CHEMBL5728383, “Isoquinoline ether compounds as mGluR4 allosteric potentiators, compositions, and methods of treating neurological dysfunction” (2021).
